From patent publication US10195196B2, “1,4-disubstituted pyridazine analogs there of and methods for treating SMN-deficiency-related conditions” (NOVARTIS AG, priority 2012, dated 2019)

Test system: SMN protein
Assay: cellular SMN ELISA (SMN protein elevation)
Format: cell-based
Settings: myoblast cell line from SMNdelta7 mouse model, 24 hours treatment; for SMN activity Fold: fold activation over DMSO control
How it was run: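 SMNdelta7 mouse-derived myoblasts were treated with compound for 24 h, then lysed. SMN protein was quantified by sandwich ELISA (HRP/TMB, 450 nm) and reported as fold over DMSO and EC50, over 20 nM–10 μM or 100 pM–10 μM depending on condition.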

[1] = ELISA condition 2: compound concentration 100 pM-10 uM
[2] = ELISA condition 1: compound concentration range 20 nM-10 uM

With `CN(c1ccc(-c2c(O)cc(-c3cn[nH]c3)cc2F)nn1)C1CC(C)(C)NC(C)(C)C1` [Example 40-7, 3-fluoro-2-(6-(methyl(2,2,6,6-tetramethylpiperidin-4-yl)amino)pyridazin-3-yl)-5-(1H-pyrazol-4-yl)phenol] the EC50 [1] was 4 nM and the “SMN activity Fold” value [1] was 2.80 Fold.
With `COc1cc(-c2cnn(C)c2)cc(O)c1-c1ccc(N(C)C2CC(C)(C)NC(C)(C)C2)nn1` [Example 26-1, 3-methoxy-2-(6-(methyl(2,2,6,6-tetramethylpiperidin-4-yl)amino)pyridazin-3-yl)-5-(1-methyl-1H-pyrazol-4-yl)phenol] the EC50 [1] was 14 nM and the “SMN activity Fold” value [1] was 3.18 Fold.
`Oc1cc2ccccc2cc1-c1ccc(CC2CCNCC2)nn1` [Example 21-1, 3-(6-(piperidin-4-ylmethyl)pyridazin-3-yl)naphthalen-2-ol] was tested, and the EC50 [1] was 959 nM and the “SMN activity Fold” value [1] was 2.35 Fold.
`CN(c1ccc(-c2ccc(-c3cccc4cn[nH]c34)cc2O)nn1)C1CC(C)(C)NC(C)(C)C1` [Example 33-1, 5-(1H-indazol-7-yl)-2-(6-(methyl(2,2,6,6-tetramethylpiperidin-4-yl)amino)pyridazin-3-yl)phenol] was tested, and the EC50 [1] was 349 nM and the “SMN activity Fold” value [1] was 2.29 Fold.
In the case of `OCCN1CCC2(CCN(c3ccc(-c4ccc(-n5cccn5)cc4O)nn3)C2)C1` (stereo not shown) [Example 18-16, 2-(6-(7-(2-hydroxyethyl)-2,7-diazaspiro[4.4]-nonan-2-yl)pyridazin-3-yl)-5-(1H-pyrazol-1-yl)phenol], the EC50 [1] is reported as 227 nM and the “SMN activity Fold” value [1] is reported as 3.25 Fold.
With `CC1(C)CC(Nc2ccc(-c3cc4ccc(O)cc4cc3O)nn2)CC(C)(C)N1` [Example 20-3, 3-(6-((2,2,6,6-tetramethylpiperidin-4-yl)amino)pyridazin-3-yl)naphthalene-2,7-diol] the EC50 [1] was 8 nM and the “SMN activity Fold” value [1] was 3.42 Fold.
`Oc1cc(-n2cccn2)ccc1-c1ccc(OCC2CCNC2)nn1` (single isomer, unassigned) [Example 17-8, 5-(1H-pyrazol-1-yl)-2-(6-(pyrrolidin-3-ylmethoxy)pyridazin-3-yl)phenol] was tested, and the EC50 [1] was 3150 nM and the “SMN activity Fold” value [1] was 2.18 Fold.
In the case of `CN(c1ccc(-c2ccc(-n3cccn3)nc2)nn1)C1CC(C)(C)NC(C)(C)C1` [Example 1-19, methyl-[6-(6-pyrazol-1-yl-pyridin-3-yl)-pyridazin-3-yl]-(2,2,6,6-tetramethyl-piperidin-4-yl)-amine], the EC50 [2] is reported as 740 nM and the “SMN activity Fold” value [2] is reported as 3.10 Fold.
For `CN(c1ccc(-c2ccc(-c3cncnc3)cc2O)nn1)C1CC(C)(C)NC(C)(C)C1` [Example 41-12, 2-(6-(methyl(2,2,6,6-tetramethylpiperidin-4-yl)amino)pyridazin-3-yl)-5-(pyrimidin-5-yl)phenol], the EC50 [1] was 103 nM and the “SMN activity Fold” value [1] was 2.92 Fold.
With `CN(c1ccc(-c2cc3c(cc2O)-c2[nH]ncc2C3)nn1)C1CC(C)(C)NC(C)(C)C1` [Example 35-2, 6-(6-(methyl(2,2,6,6-tetramethylpiperidin-4-yl)amino)pyridazin-3-yl)-1,4-dihydroindeno[1,2-c]pyrazol-7-ol] the EC50 [1] was 10 nM and the “SMN activity Fold” value [1] was 2.84 Fold.
`CCOc1cc(-c2ncc(C)o2)cc(O)c1-c1ccc(N(C)C2CC(C)(C)NC(C)(C)C2)nn1` [Example 27-2, 3-ethoxy-2-(6-(methyl(2,2,6,6-tetramethylpiperidin-4-yl)amino)pyridazin-3-yl)-5-(5-methyloxazol-2-yl)phenol] was tested, and the EC50 [1] was 165 nM and the “SMN activity Fold” value [1] was 2.83 Fold.
For `CC1(N)CCN(c2ccc(-c3ccc(-n4cccn4)cc3O)nn2)CC1` [Example 18-12, 2-[6-(4-amino-4-methyl-piperidin-1-yl)-pyridazin-3-yl]-5-pyrazol-1-yl-phenol], the EC50 [1] was 792 nM and the “SMN activity Fold” value [1] was 2.62 Fold.
With `Cn1ccc(-c2ccc(-c3ccc(OC4CC(C)(C)NC(C)(C)C4)nn3)c(O)c2)cc1=O` [Example 41-11, 4-(3-hydroxy-4-(6-((2,2,6,6-tetramethylpiperidin-4-yl)oxy)pyridazin-3-yl)phenyl)-1-methylpyridin-2(1H)-one] the EC50 [1] was 12 nM and the “SMN activity Fold” value [1] was 2.78 Fold.
`CN(c1ccc(-c2ccc(-c3cnn(C)c3)cc2O)nn1)C1CC(C)(C)NC(C)(C)C1` [Example 16-2, 2-(6-(methyl(2,2,6,6-tetramethylpiperidin-4-yl)amino)pyridazin-3-yl)-5-(1-methyl-1H-pyrazol-4-yl)phenol] was tested, and the EC50 [1] was 15 nM and the “SMN activity Fold” value [1] was 3.21 Fold.
`CN(c1ccc(-c2cc3ccc(OCCCO)cc3cc2O)nn1)C1CC(C)(C)NC(C)(C)C1` [Example 20-7, 7-(3-hydroxypropoxy)-3-(6-(methyl(2,2,6,6-tetramethylpiperidin-4-yl)amino)pyridazin-3-yl)naphthalen-2-ol] was tested, and the EC50 [1] was 7 nM and the “SMN activity Fold” value [1] was 2.75 Fold.
In the case of `Oc1cc(-n2cccn2)ccc1-c1ccc(N2CC3CNC(C3)C2)nn1` (stereo not shown) [Example 18-8, 2-[6-(3,6-diaza-bicyclo[3.2.1]oct-3-yl)-pyridazin-3-yl]-5-pyrazol-1-yl-phenol], the EC50 [1] is reported as 983 nM and the “SMN activity Fold” value [1] is reported as 2.32 Fold.
With `COc1cc(O)c(-c2ccc(N(C)C3CC(C)(C)NC(C)(C)C3)nn2)c(OC)c1` [Example 3-9, 3,5-dimethoxy-2-{6-[methyl-(2,2,6,6-tetramethyl-piperidin-4-yl)-amino]-pyridazin-3-yl}-phenol] the EC50 [1] was 323 nM and the “SMN activity Fold” value [1] was 2.88 Fold.
In the case of `CC1(C)CC(Nc2ccc(-c3c(O)cc(-c4cn[nH]c4)cc3OC(F)(F)F)nn2)CC(C)(C)N1` [Example 25-3, 5-(1H-pyrazol-4-yl)-2-(6-((2,2,6,6-tetramethylpiperidin-4-yl)amino)pyridazin-3-yl)-3-(trifluoromethoxy)phenol], the EC50 [1] is reported as 119 nM and the “SMN activity Fold” value [1] is reported as 2.39 Fold.
With `C=CCNC(=O)c1ccc(-c2ccc(N(C)C3CC(C)(C)NC(C)(C)C3)nn2)c(O)c1` [Example 8-1, N-allyl-3-hydroxy-4-(6-(methyl(2,2,6,6-tetramethylpiperidin-4-yl)amino)pyridazin-3-yl)benzamide] the EC50 [2] was 280 nM and the “SMN activity Fold” value [2] was 2.72 Fold.
In the case of `CN(c1ccc(-c2ccc(Cl)cc2O)nn1)C1CC(C)(C)NC(C)(C)C1` [Example 29-1, 5-chloro-2-(6-(methyl(2,2,6,6-tetramethylpiperidin-4-yl)amino)pyridazin-3-yl)phenol], the EC50 [1] is reported as 113 nM and the “SMN activity Fold” value [1] is reported as 2.49 Fold.
With `CN(c1ccc(-c2ccc(-c3ccnc(O)c3)cc2O)nn1)C1CC(C)(C)NC(C)(C)C1` [Example 41-3] the EC50 [1] was 66 nM and the “SMN activity Fold” value [1] was 3.10 Fold.
For `CN(c1ccc(-c2cc3ccc(C4CCOCC4)cc3cc2O)nn1)C1CC(C)(C)NC(C)(C)C1` [Example 24-9, 3-(6-(methyl(2,2,6,6-tetramethylpiperidin-4-yl)amino)pyridazin-3-yl)-7-(tetrahydro-2H-pyran-4-yl)naphthalen-2-ol], the EC50 [1] was 338 nM and the “SMN activity Fold” value [1] was 2.65 Fold.
In the case of `CN(c1ccc(-c2c(O)cc(-c3cn[nH]c3)cc2O)nn1)C1CC(C)(C)NC(C)(C)C1` [Example 25-1, 2-(6-(methyl(2,2,6,6-tetramethylpiperidin-4-yl)amino)pyridazin-3-yl)-5-(1H-pyrazol-4-yl)benzene-1,3-diol], the EC50 [1] is reported as 84 nM and the “SMN activity Fold” value [1] is reported as 2.58 Fold.
